Laboratory results: patent US12415786B2, “Substituted 2-heteroarylaminobenzenes and the salts thereof and their use as herbicidal agents” (Bayer Aktiengesellschaft, priority 2019, dated 2025)

Experiments:
Format in all cases: in vivo
[1] = tested on: Poa annua; test: Herbicidal early post-emergence action (96-well microtiter plates), POAAN; conditions: 1900 g/ha, scored 9 to 12 days after treatment, 100% = plants have died, 0% = like untreated control plants
Procedure, shortened: (§1)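 Activity was scored by eye 9 to 12 days after treatment (100% = plants dead, 0% = like untreated controls). Spraying used emulsion concentrates at 1900 g/ha in 2200 L/ha water, applied to cotyledon-stage seedlings raised 5 to 7 days in quartz sand in 96-well plates under controlled conditions.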

[2] = tested on: Setaria viridis; test: Herbicidal post-emergence action (greenhouse pots), SETVI; conditions: 1280 g/ha, rated after about 3 weeks, 100% = plants have died, 0% = like untreated control plants
Description: (§2) In the examples and tables below, the following abbreviations are used: • Undesired Plants/Weeds: • ABUTH: Abutilon theophrasti • AGSTE: Agrostis tenuis • AMARE Amaranthus retroflexus • ECHCG: Echinochloa crus-galli • LOLRI: Lolium rigidum • MATIN: Matricaria inodora • POAAN: Poa annua • SETVI: Setaria viridis • STEME: Stellaria media A. Herbicidal Early Post-Emergence Action Seeds of mono- and dicotyledonous weed plants were placed in plastic pots in sandy loam soil (doubly sown with in each case one species of mono- or dicotyledonous weed plants per pot), covered with soil and cultivated in a greenhouse under controlled growth conditions. 2 to 3 weeks after sowing, the test plants were treated at the one-leaf stage. The compounds of the invention, formulated in the form of wettable powders (WP) or as emulsion concentrates (EC), were applied onto the green parts of the plants as aqueous suspension or emulsion with addition of 0.5% additive at a water application rate of 600 liters per hectare (converted). After the test plants had been kept in the greenhouse under optimum growth conditions for about 3 weeks, the activity of the preparations was rated visually in comparison to untreated controls. For example, 100% activity=the plants have died, 0% activity=like untreated control plants. Tables B1-B8 below show the effects of selected compounds of the general formula (I) according to Table 1 above on various harmful plants and an application rate corresponding to 1280 g/ha, which were obtained by the experimental procedure mentioned above.

[3] = tested on: Poa annua; test: Herbicidal pre-emergence action (greenhouse pots), POAAN; conditions: 1280 g/ha, visual scoring after about 3 weeks vs untreated controls
Procedure, shortened: (§3)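 Visual % activity (0 = like untreated, 100 = plants dead) scored about 3 weeks after treatment. Sandy loam pots were doubly sown with one monocot and one dicot species each. WP/EC formulations at 1280 g/ha were sprayed onto the soil surface in 600 L/ha water containing 0.5% additive.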

[4] = tested on: Amaranthus retroflexus; test: Herbicidal post-emergence action (greenhouse pots), AMARE; conditions: 1280 g/ha, visual rating about 3 weeks after treatment vs untreated controls
Procedure, shortened: (§4)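 Compounds were applied at 1280 g/ha to the green parts of one-leaf-stage greenhouse weeds, using WP/EC formulations in 600 L/ha water plus 0.5% additive. Visual percent activity was scored around 3 weeks later relative to untreated plants, with 100% meaning plant death.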

[5] = tested on: Stellaria media; test: Herbicidal pre-emergence action (greenhouse pots), STEME; conditions: 1280 g/ha, visual scoring after about 3 weeks vs untreated controls
Procedure, shortened: as §3

[6] = tested on: Echinochloa crus-galli; test: Herbicidal post-emergence action (greenhouse pots), ECHCG; conditions: 1280 g/ha, rated after about 3 weeks, 100% = plants have died, 0% = like untreated control plants
Description: as §2

[7] = tested on: Poa annua; test: Herbicidal post-emergence action (greenhouse pots), POAAN; conditions: 1280 g/ha, visual rating about 3 weeks after treatment vs untreated controls
Description: as §2

[8] = tested on: Setaria viridis; test: Herbicidal pre-emergence action (greenhouse pots), SETVI; conditions: 1280 g/ha, visual scoring after about 3 weeks vs untreated controls
Procedure, shortened: as §3

[9] = tested on: Agrostis tenuis; test: Herbicidal early post-emergence action (96-well microtiter plates), AGSTE; conditions: 1900 g/ha, scored 9 to 12 days after treatment, 100% = plants have died, 0% = like untreated control plants
Procedure, shortened: as §1

[10] = tested on: Lolium rigidum; test: Herbicidal pre-emergence action (greenhouse pots), LOLRI; conditions: 1280 g/ha, visual scoring after about 3 weeks vs untreated controls
Description: (§5) In the examples and tables below, the following abbreviations are used: • Undesired Plants/Weeds: • ABUTH: Abutilon theophrasti • AGSTE: Agrostis tenuis • AMARE Amaranthus retroflexus • ECHCG: Echinochloa crus-galli • LOLRI: Lolium rigidum • MATIN: Matricaria inodora • POAAN: Poa annua • SETVI: Setaria viridis • STEME: Stellaria media A. Herbicidal Early Post-Emergence Action Seeds of mono- and dicotyledonous weed plants were placed in plastic pots in sandy loam soil (doubly sown with one species each of mono- or dicotyledonous weed plants per pot) and covered with soil. The compounds of the invention, formulated in the form of wettable powders (WP) or as emulsion concentrates (EC), were then applied onto the surface of the covering soil as aqueous suspension or emulsion with addition of 0.5% additive at a water application rate of 600 liters per hectare (converted). After the treatment, the pots were placed in a greenhouse and kept under good growth conditions for the test plants. After about 3 weeks, the effect of the preparations was scored visually in comparison with untreated controls as percentages. For example, 100% activity=the plants have died, 0% activity=like untreated control plants. Tables C1-C8 below show the effects of selected compounds of the general formula (I) according to Table 1 above on various harmful plants and an application rate corresponding to 1280 g/ha, which were obtained by the experimental procedure mentioned above.

[11] = tested on: Amaranthus retroflexus; test: Herbicidal pre-emergence action (greenhouse pots), AMARE; conditions: 1280 g/ha, visual scoring after about 3 weeks vs untreated controls
Procedure, shortened: as §3

[12] = tested on: Stellaria media; test: Herbicidal post-emergence action (greenhouse pots), STEME; conditions: 1280 g/ha, visual rating about 3 weeks after treatment vs untreated controls
Procedure, shortened: as §4

[13] = tested on: Abutilon theophrasti; test: Herbicidal post-emergence action (greenhouse pots), ABUTH; conditions: 1280 g/ha, visual rating about 3 weeks after treatment vs untreated controls
Procedure, shortened: as §4

[14] = tested on: Echinochloa crus-galli; test: Herbicidal pre-emergence action (greenhouse pots), ECHCG; conditions: 1280 g/ha, visual scoring after about 3 weeks vs untreated controls
Description: as §5

[15] = tested on: Matricaria inodora; test: Herbicidal pre-emergence action (greenhouse pots), MATIN; conditions: 1280 g/ha, visual scoring after about 3 weeks vs untreated controls
Procedure, shortened: as §3

[16] = tested on: Abutilon theophrasti; test: Herbicidal pre-emergence action (greenhouse pots), ABUTH; conditions: 1280 g/ha, visual scoring after about 3 weeks vs untreated controls
Description: as §5

Compound | POAAN (herbicidal activity, scored visually in comparison to untreated controls) [1] [%] | SETVI (herbicidal activity, rated visually in comparison to untreated controls) [2] [%] | herbicidal activity POAAN [3] [%] | herbicidal activity AMARE [4] [%] | herbicidal activity STEME [5] [%] | ECHCG (herbicidal activity, rated visually in comparison to untreated controls) [6] [%] | herbicidal activity POAAN [7] [%] | herbicidal activity SETVI [8] [%] | AGSTE (herbicidal activity, scored visually in comparison to untreated controls) [9] [%] | herbicidal activity LOLRI [10] [%] | herbicidal activity AMARE [11] [%] | herbicidal activity STEME [12] [%] | herbicidal activity ABUTH [13] [%] | herbicidal activity ECHCG [14] [%] | herbicidal activity MATIN [15] [%] | herbicidal activity ABUTH [16] [%]
N#Cc1cccc(Nc2ncc(Cl)cn2)c1Oc1ccc(F)c(F)c1 [Example 1-291] | 100 | 100 | 100 | 100 | 100 | 100 | 100 | 100 | 100 | 100 | 100 | 100 | 100 | 90 | 100 | –
N#Cc1cccc(Nc2ncc(F)cn2)c1Oc1ccc(C(F)(F)F)cc1 [Example 1-279] | 100 | – | 100 | 100 | 100 | – | 100 | 100 | 80 | 90 | 100 | 100 | – | – | 90 | –
N#Cc1cccc(Nc2ncc(Cl)cn2)c1Oc1ccc(Cl)nc1 [Example 3-56] | 100 | 100 | 100 | 100 | 100 | 100 | 100 | 100 | 100 | – | 100 | 100 | 100 | 100 | 100 | 100
N#Cc1cccc(Nc2ncccn2)c1Oc1ccc(F)c(F)c1 [Example 1-253] | 100 | 90 | 100 | 100 | 100 | 100 | – | 100 | 100 | 100 | 100 | 100 | 100 | 100 | 100 | –
N#Cc1cccc(Nc2ncc(F)cn2)c1Oc1cccc(C(F)(F)F)c1 [Example 1-278] | 100 | – | 100 | 100 | 100 | 90 | – | 100 | 100 | 100 | 100 | 100 | 90 | – | 100 | –
N#Cc1cccc(Nc2ncc(Cl)cn2)c1Oc1ccc(Cl)cc1F [Example 1-294] | 100 | – | 100 | 100 | 100 | – | 100 | 100 | 80 | – | 100 | 100 | – | 90 | – | 90
Cc1cnc(Nc2cccc(C#N)c2Oc2ccc(F)cc2)nc1 [Example 1-308] | 100 | 100 | 100 | 100 | 100 | 100 | 100 | 100 | 100 | – | 100 | 100 | 100 | 90 | 100 | 100
N#Cc1ccc(Oc2c(C#N)cccc2Nc2ncc(Cl)cn2)cc1 [Example 1-299] | 100 | 90 | 100 | 100 | 100 | – | – | 100 | 80 | 90 | 100 | 100 | – | – | – | –
